Experimental data published in ChEMBL document CHEMBL1201862, “PubChem BioAssay data set” (2004).
Activity calls are given as the source filed them.

Columns and labels:
Vero = Vero cell cytotoxicity, cytotoxicity control for flavivirus capping enzyme inhibitors (AID 588742); format: functional; conditions: Chlorocebus sabaeus
[1] = molecular target: T1, High affinity choline transporter 1 (Homo sapiens, UniProt Q9GZV3); experiment: CHT inhibitors, dose response, cell-based, 10-point CRC, membrane potential dye (AID 588401); format: functional;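 note: membrane potential dye fluorescence of choline-evoked depolarization via CHT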
T1 sequence (Q9GZV3 whole entry): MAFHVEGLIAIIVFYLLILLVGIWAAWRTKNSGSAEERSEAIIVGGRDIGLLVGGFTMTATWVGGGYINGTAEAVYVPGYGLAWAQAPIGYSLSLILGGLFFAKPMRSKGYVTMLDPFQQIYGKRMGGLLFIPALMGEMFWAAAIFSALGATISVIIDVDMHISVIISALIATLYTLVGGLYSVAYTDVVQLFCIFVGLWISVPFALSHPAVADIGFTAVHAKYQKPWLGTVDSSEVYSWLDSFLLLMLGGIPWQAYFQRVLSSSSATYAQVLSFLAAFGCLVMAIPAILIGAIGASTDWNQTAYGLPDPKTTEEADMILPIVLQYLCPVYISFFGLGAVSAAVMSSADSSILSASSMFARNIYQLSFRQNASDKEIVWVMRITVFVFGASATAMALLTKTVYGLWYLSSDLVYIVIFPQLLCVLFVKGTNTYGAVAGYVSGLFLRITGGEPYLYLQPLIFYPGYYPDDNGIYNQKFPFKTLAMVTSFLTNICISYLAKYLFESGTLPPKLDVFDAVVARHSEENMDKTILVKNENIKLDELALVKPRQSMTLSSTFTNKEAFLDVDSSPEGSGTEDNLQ

[2] = molecular target: T1, High affinity choline transporter 1; experiment: CHT inhibitors, dose response, cell-based, 5-point CRC, membrane potential dye (AID 504840); format: functional
[3] = molecular target: T2, Apoptotic protease-activating factor 1 (Homo sapiens, UniProt O14727); experiment: SAR analysis of small molecule Activators of Apaf-1 in a Fluorescent assay.; format: functional; conditions: read-out: EC50_Mean;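 note: caspase-3 cleavage of fluorogenic Rh110 DEVD substrate downstream of apoptosome activation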
T2 sequence (O14727 whole entry): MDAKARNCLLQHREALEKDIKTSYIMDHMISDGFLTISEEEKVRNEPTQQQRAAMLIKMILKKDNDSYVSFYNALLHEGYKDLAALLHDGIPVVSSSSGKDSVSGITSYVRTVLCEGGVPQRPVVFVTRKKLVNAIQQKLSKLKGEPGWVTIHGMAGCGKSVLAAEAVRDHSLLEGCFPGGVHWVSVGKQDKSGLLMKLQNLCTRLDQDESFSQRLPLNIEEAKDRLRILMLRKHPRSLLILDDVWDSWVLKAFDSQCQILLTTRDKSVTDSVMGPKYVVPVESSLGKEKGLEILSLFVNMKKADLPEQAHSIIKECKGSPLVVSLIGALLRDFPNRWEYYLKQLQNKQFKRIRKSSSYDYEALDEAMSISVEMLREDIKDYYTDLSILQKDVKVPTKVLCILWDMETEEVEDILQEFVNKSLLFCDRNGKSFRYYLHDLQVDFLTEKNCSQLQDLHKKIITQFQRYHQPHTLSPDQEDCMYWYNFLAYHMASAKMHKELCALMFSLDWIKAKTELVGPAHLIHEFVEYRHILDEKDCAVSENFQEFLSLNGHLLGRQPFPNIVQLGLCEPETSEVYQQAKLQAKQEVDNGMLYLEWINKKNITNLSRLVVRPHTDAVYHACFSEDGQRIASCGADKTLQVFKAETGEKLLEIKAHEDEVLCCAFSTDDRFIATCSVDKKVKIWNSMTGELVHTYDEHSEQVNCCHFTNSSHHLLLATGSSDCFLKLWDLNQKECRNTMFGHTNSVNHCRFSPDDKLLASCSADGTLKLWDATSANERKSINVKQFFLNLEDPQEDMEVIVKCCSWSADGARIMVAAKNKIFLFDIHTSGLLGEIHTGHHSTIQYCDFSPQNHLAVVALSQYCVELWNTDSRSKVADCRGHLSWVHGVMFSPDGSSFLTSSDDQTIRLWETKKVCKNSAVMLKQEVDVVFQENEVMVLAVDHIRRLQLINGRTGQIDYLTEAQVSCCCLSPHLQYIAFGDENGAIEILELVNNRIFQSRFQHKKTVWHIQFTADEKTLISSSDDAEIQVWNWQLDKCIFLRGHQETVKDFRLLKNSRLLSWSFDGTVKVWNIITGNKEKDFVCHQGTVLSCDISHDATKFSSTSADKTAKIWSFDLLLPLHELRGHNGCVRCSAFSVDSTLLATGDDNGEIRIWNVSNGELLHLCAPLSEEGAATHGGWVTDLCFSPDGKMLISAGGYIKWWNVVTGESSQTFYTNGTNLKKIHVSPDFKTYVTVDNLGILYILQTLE

A-375 [4] = experiment: MITF: Counter assay: A375 proliferation Measured in Cell-Based System Using Plate Reader - 2084-03_Inhibitor_Dose_DryPowder_Activity. [Related pubchem assays (depositor defined):AID488944]; format: functional; conditions: Homo sapiens
A-375 [5] = experiment: A375 melanoma cell viability reduction, dose response, counter-screen for MITF modulator project, cherry-pick samples, set 2 (AID 540335); format: functional, cell-based; conditions: Homo sapiens
Beta-galactosidase = Beta-galactosidase (Escherichia coli, UniProt Q8VNN2); experiment: PubChem AID 485352; format: functional
[6] = molecular target: T3, Type-1 angiotensin II receptor (Homo sapiens, UniProt P30556); experiment: AT1 receptor antagonists, dose response, selectivity assay for APJ receptor antagonist project, cell-based, uHTS hits (AID 463214); format: functional;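 note: antagonist potency against angiotensin II stimulated AT1 response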
T3 sequence (P30556 whole entry): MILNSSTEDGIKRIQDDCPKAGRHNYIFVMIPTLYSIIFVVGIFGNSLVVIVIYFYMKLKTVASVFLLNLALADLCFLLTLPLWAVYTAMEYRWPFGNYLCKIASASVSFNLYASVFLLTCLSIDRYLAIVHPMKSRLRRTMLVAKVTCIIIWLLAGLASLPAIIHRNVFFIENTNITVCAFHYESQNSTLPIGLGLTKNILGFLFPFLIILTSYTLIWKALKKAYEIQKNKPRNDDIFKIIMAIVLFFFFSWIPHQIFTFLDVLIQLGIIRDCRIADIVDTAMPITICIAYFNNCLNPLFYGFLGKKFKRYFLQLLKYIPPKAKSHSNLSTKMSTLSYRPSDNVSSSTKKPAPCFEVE

[7] = microbe, parasite or virus in culture; format: functional; conditions: Mycobacterium tuberculosis
[8] = molecular target: T4, Serine/threonine-protein phosphatase (Candida dubliniensis (strain CD36 / CBS 7987 / NCPF 3949 / NRRLY-17841) (Yeast), UniProt B9W6M3); experiment: calcineurin pathway inhibitors in yeast reporter, dose response, S. cerevisiae, CDRE-lacZ, luminescence, secondary (AID 2388); format: functional, cell-based;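 note: yeast reporter cells carrying a calcineurin-responsive lacZ construct stimulated with calcium chloride; luminescent beta-galactosidase reporter signal in whole cells rather than isolated phosphatase activity; potency for inhibition where a drop in reporter signal means calcineurin blockade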
T4 sequence (B9W6M3 whole entry): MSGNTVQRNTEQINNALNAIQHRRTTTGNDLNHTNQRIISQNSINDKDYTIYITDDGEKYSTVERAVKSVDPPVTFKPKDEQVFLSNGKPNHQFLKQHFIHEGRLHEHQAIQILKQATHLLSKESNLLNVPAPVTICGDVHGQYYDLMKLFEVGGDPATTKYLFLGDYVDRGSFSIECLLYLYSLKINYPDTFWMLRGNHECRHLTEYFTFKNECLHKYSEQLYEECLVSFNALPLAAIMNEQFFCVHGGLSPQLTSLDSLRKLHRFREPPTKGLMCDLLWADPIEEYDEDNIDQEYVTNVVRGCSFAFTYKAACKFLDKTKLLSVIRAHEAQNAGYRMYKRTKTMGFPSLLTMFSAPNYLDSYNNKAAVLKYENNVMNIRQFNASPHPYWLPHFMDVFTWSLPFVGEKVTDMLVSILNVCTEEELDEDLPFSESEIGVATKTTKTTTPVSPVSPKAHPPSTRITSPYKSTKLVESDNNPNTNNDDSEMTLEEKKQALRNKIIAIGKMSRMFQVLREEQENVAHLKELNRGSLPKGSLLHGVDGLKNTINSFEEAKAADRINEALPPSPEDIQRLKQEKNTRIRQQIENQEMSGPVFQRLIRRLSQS

[9] = NIH-3T3 fibroblast cytotoxicity, dose response, cytotoxicity control, cell-based, fluorescence, Alamar Blue, secondary assay (AID 2327); format: functional;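 note: NIH-3T3 mouse fibroblasts cultured with fluconazole at 8 µg/mL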
Protein skinhead-1 = molecular target: T5, Protein skinhead-1 (Caenorhabditis elegans, UniProt P34707); format: functional
T5 sequence (P34707 whole entry): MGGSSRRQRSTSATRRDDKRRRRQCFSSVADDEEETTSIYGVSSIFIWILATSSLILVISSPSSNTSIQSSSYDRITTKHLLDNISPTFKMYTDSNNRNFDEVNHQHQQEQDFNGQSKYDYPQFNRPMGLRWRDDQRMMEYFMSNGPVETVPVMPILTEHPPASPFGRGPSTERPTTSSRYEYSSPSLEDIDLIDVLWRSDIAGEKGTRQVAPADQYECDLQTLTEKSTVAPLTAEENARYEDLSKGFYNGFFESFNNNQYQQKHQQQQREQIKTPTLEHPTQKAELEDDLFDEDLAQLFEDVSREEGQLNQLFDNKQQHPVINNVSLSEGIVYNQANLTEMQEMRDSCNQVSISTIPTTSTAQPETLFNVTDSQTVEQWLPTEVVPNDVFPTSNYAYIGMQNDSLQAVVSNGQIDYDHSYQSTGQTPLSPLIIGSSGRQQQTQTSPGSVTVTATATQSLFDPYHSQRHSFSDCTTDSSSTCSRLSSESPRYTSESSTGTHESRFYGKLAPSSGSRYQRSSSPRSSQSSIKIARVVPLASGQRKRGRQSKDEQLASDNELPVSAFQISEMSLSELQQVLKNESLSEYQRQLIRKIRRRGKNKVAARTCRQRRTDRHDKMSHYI

[10] = C. albicans growth with fluconazole, confirmation, fluorescence, retest (AID 2467); format: functional, cell-based
INS1 = experiment: beta cell apoptosis inhibitors, cytokine rescue, dose response, luminescence, retest (AID 449756); format: functional, cell-based; conditions: Rattus norvegicus;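 note: cell death triggered by IL-1 beta plus TNF-alpha plus IFN-gamma mixture; protective hits raise ATP signal compared with cytokine alone wells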
[11] = molecular target: ATP-dependent molecular chaperone HSP82 (Candida albicans (strain WO-1) (Yeast), UniProt C4YTQ8); experiment: loss of DOC-induced GRE-beta-galactosidase reporter signal, dose response, Hsp90 inhibitor project, S. cerevisiae, luminescence (AID 2400); format: functional, cell-based;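 note: beta-galactosidase luminescence from glucocorticoid response element reporter as proxy for Hsp90 function; inhibitor potency where signal loss means Hsp90 inhibition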
Orexin receptor type 2 [12] = molecular target: T6, Orexin receptor type 2 (Homo sapiens, UniProt O43614); experiment: Counterscreen assay for antagonists of the orexin 1 receptor (OX1R; HCRTR1): Homogeneous Time Resolved Fluorescence (HTRF)-based cell-based dose response assay for antagonists of the orexin 2 receptor (OX2R; HCRTR2), run by assay provider.; format: functional
T6 sequence (O43614 whole entry): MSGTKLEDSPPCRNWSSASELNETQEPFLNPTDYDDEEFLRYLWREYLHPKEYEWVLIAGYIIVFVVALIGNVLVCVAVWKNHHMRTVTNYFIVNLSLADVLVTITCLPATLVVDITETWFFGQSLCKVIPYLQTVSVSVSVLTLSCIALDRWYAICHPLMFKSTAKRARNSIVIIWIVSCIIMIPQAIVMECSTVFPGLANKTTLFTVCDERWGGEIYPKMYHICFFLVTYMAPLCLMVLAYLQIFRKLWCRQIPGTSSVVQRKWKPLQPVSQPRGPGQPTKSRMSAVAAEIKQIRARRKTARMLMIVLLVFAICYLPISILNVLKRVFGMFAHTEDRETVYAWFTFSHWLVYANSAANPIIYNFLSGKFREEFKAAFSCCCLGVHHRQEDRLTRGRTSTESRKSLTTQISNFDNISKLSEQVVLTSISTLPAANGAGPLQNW

Orexin receptor type 2 [13] = molecular target: T6, Orexin receptor type 2; experiment: Counterscreen assay for antagonists of the orexin 1 receptor (OX1R; HCRTR1): Fluorescence-based cell-based dose response assay for antagonists of the orexin 2 receptor (OX2R; HCRTR2), run by assay provider.; format: functional

Sequence of Beta-galactosidase (Q8VNN2 whole entry): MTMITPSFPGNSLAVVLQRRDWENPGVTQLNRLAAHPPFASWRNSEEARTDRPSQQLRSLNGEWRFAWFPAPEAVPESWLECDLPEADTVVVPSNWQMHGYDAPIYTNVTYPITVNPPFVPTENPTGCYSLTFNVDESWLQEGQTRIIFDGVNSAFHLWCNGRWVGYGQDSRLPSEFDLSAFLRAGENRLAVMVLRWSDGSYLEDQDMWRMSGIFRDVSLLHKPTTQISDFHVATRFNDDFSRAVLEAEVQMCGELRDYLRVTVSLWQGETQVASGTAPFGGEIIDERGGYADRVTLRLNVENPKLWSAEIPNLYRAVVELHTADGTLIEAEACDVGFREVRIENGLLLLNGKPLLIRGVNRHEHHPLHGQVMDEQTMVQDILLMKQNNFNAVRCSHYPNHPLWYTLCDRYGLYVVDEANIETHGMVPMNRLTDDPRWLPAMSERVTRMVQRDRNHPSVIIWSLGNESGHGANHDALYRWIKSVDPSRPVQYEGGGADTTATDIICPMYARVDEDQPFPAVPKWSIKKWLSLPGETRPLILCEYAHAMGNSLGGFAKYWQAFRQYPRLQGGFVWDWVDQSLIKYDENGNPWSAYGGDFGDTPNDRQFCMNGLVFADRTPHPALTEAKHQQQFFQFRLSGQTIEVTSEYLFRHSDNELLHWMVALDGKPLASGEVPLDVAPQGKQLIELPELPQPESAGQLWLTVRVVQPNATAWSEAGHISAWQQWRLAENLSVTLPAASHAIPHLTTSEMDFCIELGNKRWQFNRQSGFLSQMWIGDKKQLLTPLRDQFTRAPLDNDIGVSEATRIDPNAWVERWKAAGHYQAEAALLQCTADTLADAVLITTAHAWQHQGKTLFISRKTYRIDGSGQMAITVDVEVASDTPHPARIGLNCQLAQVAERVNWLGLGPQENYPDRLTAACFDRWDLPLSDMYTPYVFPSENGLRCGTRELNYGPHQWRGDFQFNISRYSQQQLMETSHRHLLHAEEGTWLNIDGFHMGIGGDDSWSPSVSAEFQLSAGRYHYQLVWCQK
Sequence of ATP-dependent molecular chaperone HSP82 (C4YTQ8 whole entry): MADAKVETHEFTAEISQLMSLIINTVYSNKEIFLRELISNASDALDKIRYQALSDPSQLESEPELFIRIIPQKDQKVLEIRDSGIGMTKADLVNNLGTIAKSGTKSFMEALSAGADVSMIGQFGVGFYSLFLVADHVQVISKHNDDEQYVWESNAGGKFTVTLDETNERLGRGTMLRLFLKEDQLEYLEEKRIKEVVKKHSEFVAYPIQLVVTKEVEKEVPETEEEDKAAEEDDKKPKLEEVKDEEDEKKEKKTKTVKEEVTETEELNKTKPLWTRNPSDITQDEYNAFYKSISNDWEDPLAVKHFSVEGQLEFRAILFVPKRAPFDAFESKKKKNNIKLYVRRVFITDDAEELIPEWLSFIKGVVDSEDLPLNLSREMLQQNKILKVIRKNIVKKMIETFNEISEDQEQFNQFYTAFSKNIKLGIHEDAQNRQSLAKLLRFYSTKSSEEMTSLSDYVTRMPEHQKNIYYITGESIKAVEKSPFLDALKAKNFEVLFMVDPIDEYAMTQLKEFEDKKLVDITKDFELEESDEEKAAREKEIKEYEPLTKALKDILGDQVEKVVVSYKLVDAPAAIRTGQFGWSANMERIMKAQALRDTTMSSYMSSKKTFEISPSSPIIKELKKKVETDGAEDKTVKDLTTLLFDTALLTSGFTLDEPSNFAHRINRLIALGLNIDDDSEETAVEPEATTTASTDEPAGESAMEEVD

With `COc1ccc(CC2=C(O)C(=O)c3ccccc3C2=O)cc1` the CC50 (Vero) was > 40 µM (active).

With `O=C(NC1CCCCCCC1)c1ccc(CNc2c(N3CCOCC3)c(=O)c2=O)cc1` the IC50 [1] was 2.01 µM (active) and the IC50 [2] was 0.875 µM (active).

In the case of `COc1ccc(CN2CCN(C(C)C)C(CCO)C2)cc1Cn1cccn1` (stereo not given), the IC50 [1] is reported as 1.41 µM (active) and the IC50 [2] is reported as 3.31 µM (active).

With `O=C(Nc1nc2ccsc2c(=O)s1)C1CCC1` the EC50 [3] was > 100 µM (inactive), the AC50 (A-375 [4]) was > 35 µM (active) and the AC50 (A-375 [5]) was > 35 µM (active).

For `COc1ccc(NS(=O)(=O)c2ccc(NC(=O)c3ccccc3Br)cc2)nn1`, the IC50 [1] was 5.01 µM (active) and the IC50 [2] was 10.3 µM (active).

In the case of `O=C(COC(=O)c1ccncc1)c1ccc(Cl)c(Cl)c1`, the EC50 (Beta-galactosidase) is reported as > 40 µM (inactive) and the IC50 [6] is reported as 15 µM (active).

For `Cc1sc2nc3c4ccccc4c(NCc4ccco4)nn3c(=O)c2c1C`, the CC50 [7] was 37.6 µM (active) and the CC50 (Vero) was > 40 µM (active).

For `Cc1ccc(C(=O)COC(=O)CNS(=O)(=O)c2ccccc2)cc1[N+](=O)[O-]`, the EC50 (Beta-galactosidase) was > 40 µM (inactive) and the IC50 [6] was 33 µM (not active).

With `COc1cccc(COc2cc3ccccc3nc2C)c1` the EC50 [8] was > 180 µM (inactive), the EC50 [9] was > 150 µM (inconclusive) and the IC50 (Protein skinhead-1) was 80.1 µM (inactive). For the same compound, the EC50 [10] was 0.914 µM (active), the AC50 (INS1) was 2.61 µM (active) and the EC50 [11] was > 160 µM (inactive).

For `CCOc1ccccc1C(=O)NCCCCNC(=O)c1ccccc1OCC`, the IC50 (Orexin receptor type 2 [12]) was > 50 µM (inactive) and the IC50 (Orexin receptor type 2 [13]) was > 88.8 µM (inactive).

In the case of `Cc1nc(C(F)(F)F)ccc1C(=O)Nc1nc2ccsc2c(=O)s1`, the EC50 [3] is reported as > 100 µM (inactive).
